DBAASP
Values after ≈ are worked out from the molar mass of the structure shown. Each block holds one compound with its values, some of them ahead of it.

Key:
Experiment in all cases: ≥ marks a high value that may be exact or a test limit, other limits are often not marked, values filed in µg/mL are converted to µM
[1] = test system: Bacillus subtilis DSM 347
[2] = test system: Escherichia coli DH5alpha
[3] = test system: Franconibacter helveticus DSM 18396
[4] = test system: Kocuria rhizophila DSM 348
[5] = test system: Bacillus subtilis KCTC 3068
[6] = test system: Escherichia coli DSM 1103
[7] = test system: Escherichia coli KCTC 1682
[8] = test system: Pseudomonas aeruginosa DSM 1117
[9] = test system: Pseudomonas aeruginosa KCTC 1637
[10] = test system: Salmonella typhimurium KCTC 1926
[11] = test system: Staphylococcus aureus DSM 1104
[12] = test system: Staphylococcus aureus KCTC 1621
[13] = test system: Staphylococcus epidermidis DSM 1798
[14] = test system: Staphylococcus epidermidis KCTC 1917
[15] = test system: Pseudomonas aeruginosa ATCC 27853
[16] = test system: Staphylococcus aureus ATCC 25923
[17] = test system: Staphylococcus aureus ATCC 33591
[18] = test system: Staphylococcus epidermidis ATCC 35984
[19] = test system: Bacillus subtilis ATCC 6051
[20] = test system: Escherichia coli ATCC 25922
[21] = test system: Escherichia coli NEB5alpha
[22] = test system: Candida albicans ATCC 10231
[23] = test system: Cryptococcus neoformans ATCC 32264
Escherichia coli = test system: Escherichia coli
[24] = test system: Salmonella enterica subsp. enterica serovar Enteritidis
Salmonella sp. = test system: Salmonella sp.
[25] = test system: Staphylococcus aureus ATCC 29213
[26] = test system: Staphylococcus aureus ATCC 43300
Yersinia enterocolitica = test system: Yersinia enterocolitica

Compound: CC[C@H](C)[C@H](NC(=O)CN)C(=O)NCC(=O)N[C@@H](CCCCN)C(=O)N[C@@H](Cc1ccccc1)C(=O)N[C@@H](C)C(=O)N[C@@H](Cc1cnc[nH]1)C(=O)N[C@@H](CO)C(=O)N[C@@H](C)C(=O)N[C@@H](CCCCN)C(=O)N[C@@H](CCCCN)C(=O)N[C@@H](Cc1ccccc1)C(=O)NCC(=O)N[C@@H](CCCCN)C(=O)N[C@@H](C)C(=O)N[C@@H](Cc1ccccc1)C(=O)N[C@H](C(=O)NCC(=O)N[C@@H](CCC(=O)O)C(=O)N[C@H](C(=O)N[C@@H](CCSC)C(=O)N[C@@H](CC(N)=O)C(=O)N[C@@H](CO)C(=O)O)[C@@H](C)CC)C(C)C [GIGKFAHSAKKFGKAFVGEIMNS]
MIC [1]: ≥ 32 µM
MIC [2]: ≥ 128 µM
MIC [3]: ≥ 128 µM
MIC [4]: ≥ 256 µM

Compound: CC[C@H](C)[C@H](NC(=O)CN)C(=O)NCC(=O)N[C@@H](CCCCN)C(=O)N[C@@H](Cc1ccccc1)C(=O)N[C@@H](CC(C)C)C(=O)N[C@@H](Cc1cnc[nH]1)C(=O)N[C@@H](CO)C(=O)N[C@@H](C)C(=O)N[C@@H](CCCCN)C(=O)N[C@@H](CCCCN)C(=O)N[C@@H](Cc1ccccc1)C(=O)NCC(=O)N[C@@H](CCCCN)C(=O)N[C@@H](C)C(=O)N[C@@H](Cc1ccccc1)C(=O)N[C@H](C(=O)NCC(=O)N[C@@H](CCC(=O)O)C(=O)N[C@@H](C)C(=O)N[C@@H](CCSC)C(=O)N[C@@H](CC(N)=O)C(=O)N[C@@H](CO)C(=O)O)C(C)C [GIGKFLHSAKKFGKAFVGEAMNS]
MIC [1]: 16 µM (≈ 38.8 µg/mL)
MIC [2]: ≥ 128 µM
MIC [3]: ≥ 64 µM
MIC [4]: ≥ 256 µM

Compound: NCCCC[C@H](NC(=O)[C@H](CCCN=C(N)N)NC(=O)CN)C(=O)N[C@@H](CCCCN)C(=O)N[C@@H](CCCN=C(N)N)C(=O)N[C@@H](CCCN=C(N)N)C(=O)N[C@@H](CCC(N)=O)C(=O)N[C@@H](CCCN=C(N)N)C(=O)N[C@@H](CCCN=C(N)N)C(=O)N[C@@H](CCCN=C(N)N)C(=O)N1CCC[C@H]1C(=O)N1CCC[C@H]1C(=O)N[C@@H](CCC(N)=O)C(=O)O [GRKKRRQRRRPPQ]
MIC [5]: 4 µM (≈ 6.88 µg/mL)
MIC [6]: ≥ 128 µM
MIC [7]: 2 µM (≈ 3.44 µg/mL)
MIC [8]: ≥ 128 µM
MIC [9]: 4 µM (≈ 6.88 µg/mL)
MIC [10]: 8 µM (≈ 13.8 µg/mL)
MIC [11]: ≥ 128 µM
MIC [12]: 4 µM (≈ 6.88 µg/mL)
MIC [13]: ≥ 128 µM
MIC [14]: 4 µM (≈ 6.88 µg/mL)

Compound: CC[C@H](C)[C@H](N)C(=O)NCC(=O)N[C@@H](CCCCN)C(=O)N[C@@H](Cc1ccccc1)C(=O)N[C@@H](CC(C)C)C(=O)N[C@@H](CCCCN)C(=O)N[C@@H](CCCCN)C(=O)N[C@@H](C)C(=O)N[C@@H](CCCCN)C(=O)N[C@@H](CCCCN)C(=O)N[C@@H](Cc1ccccc1)C(=O)NCC(N)=O [IGKFLKKAKKFG]
MIC [15]: 133 µM (≈ 181 µg/mL)
MIC [16]: > 375 µM
MIC [17]: ≥ 375 µM
MIC [18]: ≥ 188 µM

Compound: CC[C@H](C)[C@H](N)C(=O)N[C@H](C(=O)N[C@@H](CC(C)C)C(=O)N[C@@H](CC(N)=O)C(=O)N1CCC[C@H]1C(=O)N[C@@H](Cc1c[nH]c2ccccc12)C(=O)N[C@@H](CC(=O)O)C(=O)N[C@@H](CCC(N)=O)C(=O)N[C@H](C(=O)N[C@@H](CCCCN)C(=O)O)C(C)C)C(C)C [IVLNPWDQVK]
MIC [19]: ≥ 1360 µM
MIC [20]: 1360 µM (≈ 1650 µg/mL)
MIC [21]: ≥ 681 µM

Next, values leading:

MIC [15]: 265 µM (≈ 362 µg/mL)
MIC [16]: > 375 µM
MIC [17]: ≥ 375 µM
MIC [18]: ≥ 375 µM
Compound: CC(C)C[C@H](N)C(=O)N[C@@H](CCCCN)C(=O)N[C@@H](CCCCN)C(=O)N[C@@H](C)C(=O)N[C@@H](CCCCN)C(=O)N[C@@H](CCCCN)C(=O)N[C@@H](Cc1ccccc1)C(=O)NCC(=O)N[C@@H](CCCCN)C(=O)N[C@@H](C)C(=O)N[C@@H](Cc1ccccc1)C(=O)N[C@H](C(N)=O)C(C)C [LKKAKKFGKAFV]

MIC [19]: ≥ 500 µM
MIC [21]: ≥ 500 µM
Compound: CC[C@H](C)[C@H](NC(=O)[C@H](C)NC(=O)CNC(=O)[C@H](CCCCN)NC(=O)[C@H](CCC(=O)O)NC(=O)[C@H](CCC(=O)O)NC(=O)[C@H](CC(=O)O)NC(=O)[C@H](CCC(=O)O)NC(=O)[C@H](CC(=O)O)NC(=O)[C@H](CCCN=C(N)N)NC(=O)CNC(=O)[C@H](CCC(N)=O)NC(=O)[C@H](CC(C)C)NC(=O)[C@H](CCCCN)NC(=O)[C@H](CC(=O)O)NC(=O)[C@@H](NC(=O)[C@@H](NC(=O)[C@H](Cc1cnc[nH]1)NC(=O)[C@@H](N)CCCN=C(N)N)[C@@H](C)CC)C(C)C)C(=O)N[C@H](C(=O)N[C@@H](CCCCN)C(=O)N[C@H](C(=O)N[C@@H](CCCCN)C(=O)NCC(=O)NCC(=O)N[C@@H](CC(C)C)C(=O)O)C(C)C)C(C)C [RHIVDKLQGRDEDEEKGAIVKVKGGL]

MIC [6]: ≥ 57 µM
MIC [8]: ≥ 115 µM
MIC [11]: 29 µM (≈ 58.5 µg/mL)
MIC [13]: 4 µM (≈ 8.07 µg/mL)
Compound: CC(C)C[C@H](NC(=O)[C@H](C)NC(=O)[C@H](CCCN=C(N)N)NC(=O)[C@H](CC(C)C)NC(=O)[C@H](C)NC(=O)[C@H](CC(C)C)NC(=O)[C@H](CCCN=C(N)N)NC(=O)[C@H](CC(C)C)NC(=O)[C@H](C)NC(=O)[C@H](CC(C)C)NC(=O)[C@@H](N)CCCN=C(N)N)C(=O)N[C@@H](CCCN=C(N)N)C(=O)N[C@@H](C)C(=O)N[C@@H](C)C(=O)N[C@@H](CC(C)C)C(=O)N[C@@H](CCCN=C(N)N)C(=O)N[C@@H](CC(C)C)C(=O)N[C@@H](C)C(N)=O [RLALRLALRALRAALRLA]

MIC [22]: 100 µM (≈ 236 µg/mL)
MIC [23]: ≥ 50 µM
MIC (Escherichia coli): 25 µM (≈ 58.9 µg/mL)
MIC [15]: > 50 µM
MIC [24]: 25 µM (≈ 58.9 µg/mL)
MIC (Salmonella sp.): ≥ 50 µM
MIC [25]: > 50 µM
MIC [17]: 16 µM (≈ 37.7 µg/mL)
MIC [26]: > 50 µM
MIC (Yersinia enterocolitica): ≥ 50 µM
Compound: CC[C@H](C)[C@H](NC(=O)[C@H](CCCNC(=N)N)NC(=O)[C@@H](NC(=O)[C@H](CCC(N)=O)NC(=O)[C@@H](N)CCCNC(=N)N)[C@@H](C)CC)C(=O)N[C@@H](Cc1c[nH]c2ccccc12)C(=O)N[C@@H](Cc1ccccc1)C(=O)N[C@@H](CCC(N)=O)C(=O)N[C@@H](CC(N)=O)C(=O)N[C@@H](CCCNC(=N)N)C(=O)N[C@@H](CCCNC(=N)N)C(=O)N[C@@H](CCSC)C(=O)N[C@@H](CCCNC(=N)N)C(=O)N[C@@H](Cc1c[nH]c2ccccc12)C(=O)N[C@@H](CCCNC(=N)N)C(=O)N[C@@H](CCCNC(=N)N)C(N)=O [RQIRIWFQNRRMRWRR]

MIC [22]: 10 µM (≈ 13.8 µg/mL)
MIC [23]: 25 µM (≈ 34.6 µg/mL)
MIC [20]: 18.1 µM (≈ 25 µg/mL)
MIC (Escherichia coli): 9.03 µM (≈ 12.5 µg/mL)
MIC [15]: > 50 µM
MIC [24]: 18.1 µM (≈ 25 µg/mL)
MIC (Salmonella sp.): 18.1 µM (≈ 25 µg/mL)
MIC [25]: 36.1 µM (≈ 50 µg/mL)
MIC [26]: 18.1 µM (≈ 25 µg/mL)
MIC (Yersinia enterocolitica): 18.1 µM (≈ 25 µg/mL)
Compound: CC[C@H](C)[C@H](NC(=O)[C@H](CCC(N)=O)NC(=O)[C@@H](N)CCCN=C(N)N)C(=O)N[C@@H](CCCN=C(N)N)C(=O)N[C@@H](CCCN=C(N)N)C(=O)N[C@@H](Cc1c[nH]c2ccccc12)C(=O)N[C@@H](Cc1c[nH]c2ccccc12)C(=O)N[C@@H](CCC(N)=O)C(=O)N[C@@H](CCCN=C(N)N)C(N)=O [RQIRRWWQR]
